Laboratory results reported in ChEMBL document CHEMBL1201862, “PubChem BioAssay data set” (2004).
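Protocol summary: plate cells (96-well), add compound at 5 concentrations, incubate 48 h, interpolate endpoints linearly. GI50 = concentration required for 50% inhibition of growth.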 The source made the active and inactive calls. Rule as the data show it: active = GI50 up to about 1.1 µM and inactive = higher. Non-standard residues stand in square brackets, D forms with d. Residues, ends and D or L forms follow the SMILES beside them. ξ: configuration not given here. *: point of attachment. X18 = COC1=CC(=O)N(C(=O)C(O*)C(C)C)C1Cc1ccccc1; ξNMe2Val = CC(C)C(C(=O)*)N(C)C; NMeV = CN[CH](C(=O)O)C(C)C

Tests used:
Assay in all cases: growth of human tumour cells (NCI), 48 h
A498 = tested on: A498
CCRF-CEM = tested on: CCRF-CEM
COLO 205 = tested on: COLO 205
IGROV-1 = tested on: IGROV-1
K562 = tested on: K562
LOX IMVI = tested on: LOX IMVI
MDA-MB-231 = tested on: MDA-MB-231
MDA-MB-435 = tested on: MDA-MB-435
MDA-N = tested on: MDA-N
NCI-H226 = tested on: NCI-H226
NCI-H522 = tested on: NCI-H522
NCI/ADR-RES = tested on: NCI/ADR-RES
OVCAR-8 = tested on: OVCAR-8
SK-MEL-28 = tested on: SK-MEL-28
SK-MEL-2 = tested on: SK-MEL-2
SNB-19 = tested on: SNB-19
SR = tested on: SR
SW-620 = tested on: SW-620
TK-10 = tested on: TK-10
UACC-62 = tested on: UACC-62

| Compound | GI50 (A498) | GI50 (CCRF-CEM) | GI50 (COLO 205) | GI50 (IGROV-1) | GI50 (K562) | GI50 (LOX IMVI) | GI50 (MDA-MB-231) | GI50 (MDA-MB-435) | GI50 (MDA-N) | GI50 (NCI-H226) | GI50 (NCI-H522) | GI50 (NCI/ADR-RES) | GI50 (OVCAR-8) | GI50 (SK-MEL-28) | GI50 (SK-MEL-2) | GI50 (SNB-19) | GI50 (SR) | GI50 (SW-620) | GI50 (TK-10) | GI50 (UACC-62) |
| --- | --- | --- | --- | --- | --- | --- | --- | --- | --- | --- | --- | --- | --- | --- | --- | --- | --- | --- | --- | --- |
| COC1=CC(=O)N(C(=O)C(OC(=O)C2CCCN2C(=O)C2CCCN2C(=O)C(C(C)C)N(C)C(=O)C(NC(=O)C(C(C)C)N(C)C)C(C)C)C(C)C)C1Cc1ccccc1 (stereo unspecified) (ξNMe2Val-V[NMeV]PP-X18; configuration not given here) | 0.00424 µM (active) | 0.000309 µM (active) | 0.00163 µM (active) | 0.00231 µM (active) | 0.000349 µM (active) | 0.000849 µM (active) | 0.00146 µM (active) | 5.13e-05 µM (active) | 3.61e-05 µM (active) | 0.00773 µM (active) | 0.000347 µM (active) | 0.0234 µM (active) | 0.00201 µM (active) | 0.00309 µM (active) | 0.000902 µM (active) | 0.00629 µM (active) | 0.000251 µM (active) | 0.000469 µM (active) | 0.00682 µM (active) | 0.00189 µM (active) |
| OCCCCCNc1nc(O)c2[nH]cnc2n1 | > 100 µM (inactive) | > 100 µM (inactive) | > 100 µM (inactive) | > 100 µM (inactive) | > 100 µM (inactive) | > 100 µM (inactive) | > 100 µM (inactive) | > 100 µM (inactive) | > 100 µM (inactive) | > 100 µM (inactive) | > 100 µM (inactive) | > 100 µM (inactive) | > 100 µM (inactive) | – | > 100 µM (inactive) | > 100 µM (inactive) | > 100 µM (inactive) | > 100 µM (inactive) | > 100 µM (inactive) | > 100 µM (inactive) |
| Cc1nc(-c2ccc(/N=C/c3ccc(N(CCOS(C)(=O)=O)CCOS(C)(=O)=O)cc3C)cc2)cs1 | 2.31 µM (inactive) | 3.65 µM (inactive) | 28.5 µM (inactive) | 28.8 µM (inactive) | 26.5 µM (inactive) | 19.4 µM (inactive) | 72.8 µM (inactive) | 72.9 µM (inactive) | 46 µM (inactive) | 5.71 µM (inactive) | 24.3 µM (inactive) | > 100 µM (inactive) | 51.9 µM (inactive) | 97.9 µM (inactive) | > 100 µM (inactive) | > 100 µM (inactive) | 9.51 µM (inactive) | 67.9 µM (inactive) | 55.5 µM (inactive) | 9.59 µM (inactive) |
| COc1cccc(/C=C2\N=C(c3ccccc3)OC2=O)c1 | – | 25 µM (inactive) | 85.1 µM (inactive) | 34.1 µM (inactive) | 71.1 µM (inactive) | 26.4 µM (inactive) | > 100 µM (inactive) | > 100 µM (inactive) | 47.2 µM (inactive) | 37.8 µM (inactive) | 12.3 µM (inactive) | 25.8 µM (inactive) | 64.4 µM (inactive) | > 100 µM (inactive) | 56.1 µM (inactive) | 35.1 µM (inactive) | 23.1 µM (inactive) | > 100 µM (inactive) | > 100 µM (inactive) | > 100 µM (inactive) |
| N#CCCN(CCCN(C(=O)Nc1ccc(NC(=O)N(CCCN(CCC#N)C(N)=O)c2ccccc2)cc1)c1ccccc1)C(N)=O | > 100 µM (inactive) | 87.5 µM (inactive) | > 100 µM (inactive) | – | > 100 µM (inactive) | > 100 µM (inactive) | > 100 µM (inactive) | > 100 µM (inactive) | > 100 µM (inactive) | > 100 µM (inactive) | > 100 µM (inactive) | > 100 µM (inactive) | > 100 µM (inactive) | > 100 µM (inactive) | > 100 µM (inactive) | > 100 µM (inactive) | > 100 µM (inactive) | > 100 µM (inactive) | > 100 µM (inactive) | > 100 µM (inactive) |
| N=C(N)NS(=O)(=O)c1ccc(/N=N/c2c(O)c(C(=O)O)cc3ccccc23)cc1 | – | > 100 µM (inactive) | > 100 µM (inactive) | > 100 µM (inactive) | > 100 µM (inactive) | – | 47.4 µM (inactive) | > 100 µM (inactive) | > 100 µM (inactive) | > 100 µM (inactive) | > 100 µM (inactive) | > 100 µM (inactive) | > 100 µM (inactive) | > 100 µM (inactive) | > 100 µM (inactive) | – | > 100 µM (inactive) | > 100 µM (inactive) | > 100 µM (inactive) | > 100 µM (inactive) |
| O=C1/C(=C/c2ccc(Br)s2)NC(=S)N1CN1CCOCC1 | 35.9 µM (inactive) | – | 33 µM (inactive) | 57.4 µM (inactive) | 25.8 µM (inactive) | 24.5 µM (inactive) | 99.8 µM (inactive) | 56.9 µM (inactive) | 52 µM (inactive) | 34.5 µM (inactive) | 64 µM (inactive) | 64.9 µM (inactive) | 61.5 µM (inactive) | 40.4 µM (inactive) | 71.9 µM (inactive) | > 100 µM (inactive) | 21.5 µM (inactive) | 36.4 µM (inactive) | 50.6 µM (inactive) | 20.2 µM (inactive) |
| Cc1ccc(Nc2nc3[nH]ccc3c(=O)[nH]2)cc1 | 18.1 µM (inactive) | > 100 µM (inactive) | > 100 µM (inactive) | > 100 µM (inactive) | > 100 µM (inactive) | > 100 µM (inactive) | 52.7 µM (inactive) | > 100 µM (inactive) | > 100 µM (inactive) | > 100 µM (inactive) | > 100 µM (inactive) | > 100 µM (inactive) | > 100 µM (inactive) | – | > 100 µM (inactive) | 96.2 µM (inactive) | > 100 µM (inactive) | > 100 µM (inactive) | 95.7 µM (inactive) | 93.8 µM (inactive) |
| C=CC(c1ccccc1)C1(O)c2cccc(O)c2C(=O)c2c(O)cccc21 (stereo unspecified) | 19.6 µM (inactive) | – | – | 14.9 µM (inactive) | 6.64 µM (inactive) | 16.4 µM (inactive) | 18.3 µM (inactive) | 4.01 µM (inactive) | 5.57 µM (inactive) | 19.4 µM (inactive) | 11.7 µM (inactive) | 11.5 µM (inactive) | 19.7 µM (inactive) | 18.8 µM (inactive) | 12.4 µM (inactive) | – | 5.89 µM (inactive) | 15.1 µM (inactive) | 19.2 µM (inactive) | – |
| COc1ccc(N2C(=O)CS(=O)(=O)C2c2cccc(Oc3ccccc3)c2)cc1 (stereo unspecified) | – | 5.25 µM (inactive) | 3.29 µM (inactive) | – | 1.71 µM (inactive) | 4.4 µM (inactive) | 2.69 µM (inactive) | 0.959 µM (active) | 1.22 µM (inactive) | 4.79 µM (inactive) | 2.62 µM (inactive) | 2.89 µM (inactive) | 4.08 µM (inactive) | 16.2 µM (inactive) | 3.56 µM (inactive) | 5.53 µM (inactive) | 1.92 µM (inactive) | 3.27 µM (inactive) | 2.65 µM (inactive) | 2.21 µM (inactive) |
| CCOC(=O)[C@@]12C3C=CC(CC3)[C@]1(C(=O)c1ccccc1)C(=O)C(=O)N2c1ccccc1 (stereo partly specified) | > 100 µM (inactive) | – | > 100 µM (inactive) | – | > 100 µM (inactive) | – | > 100 µM (inactive) | > 100 µM (inactive) | > 100 µM (inactive) | – | > 100 µM (inactive) | > 100 µM (inactive) | > 100 µM (inactive) | > 100 µM (inactive) | > 100 µM (inactive) | > 100 µM (inactive) | > 100 µM (inactive) | > 100 µM (inactive) | > 100 µM (inactive) | 97.3 µM (inactive) |
| CCCCCCCCCCCCCCCC(=O)OC(COC(C)=O)CO[PH](=O)O (stereo unspecified) | > 100 µM (inactive) | 37.2 µM (inactive) | 96.8 µM (inactive) | 22.3 µM (inactive) | > 100 µM (inactive) | 23.2 µM (inactive) | 21.7 µM (inactive) | 29.5 µM (inactive) | 31.3 µM (inactive) | – | 15.1 µM (inactive) | 23.1 µM (inactive) | 18.1 µM (inactive) | 35.2 µM (inactive) | 19.5 µM (inactive) | 36.5 µM (inactive) | 24.9 µM (inactive) | 33.2 µM (inactive) | 29 µM (inactive) | 37.3 µM (inactive) |
| O=C(CN1CCN(c2ccccn2)CC1)N1CCCn2c1nc1ccccc1c2=O | > 100 µM (inactive) | > 100 µM (inactive) | > 100 µM (inactive) | > 100 µM (inactive) | > 100 µM (inactive) | > 100 µM (inactive) | > 100 µM (inactive) | > 100 µM (inactive) | > 100 µM (inactive) | > 100 µM (inactive) | > 100 µM (inactive) | > 100 µM (inactive) | > 100 µM (inactive) | – | > 100 µM (inactive) | > 100 µM (inactive) | > 100 µM (inactive) | > 100 µM (inactive) | > 100 µM (inactive) | > 100 µM (inactive) |
| O=[N+]([O-])c1ccc2nc(O)c(/C=C(\O)c3ccccc3)nc2c1 | 12.5 µM (inactive) | > 100 µM (inactive) | > 100 µM (inactive) | 20.6 µM (inactive) | > 100 µM (inactive) | – | 3.57 µM (inactive) | 35.2 µM (inactive) | 93.5 µM (inactive) | 17.6 µM (inactive) | 12.5 µM (inactive) | 10 µM (inactive) | 11.5 µM (inactive) | – | > 100 µM (inactive) | 8.09 µM (inactive) | 17.9 µM (inactive) | – | 4.13 µM (inactive) | 24.4 µM (inactive) |
| CN(C)CCNC(=O)C(C)(C)Oc1ccc(C(=O)c2ccc(Cl)cc2)cc1Cl | 16.1 µM (inactive) | 33.4 µM (inactive) | 1.82 µM (inactive) | 11.9 µM (inactive) | – | 7.11 µM (inactive) | 10.9 µM (inactive) | 5.6 µM (inactive) | 4.45 µM (inactive) | 14.7 µM (inactive) | 15 µM (inactive) | 12.5 µM (inactive) | 11.8 µM (inactive) | 1.94 µM (inactive) | 18 µM (inactive) | 13 µM (inactive) | 6.84 µM (inactive) | 5.26 µM (inactive) | 11.4 µM (inactive) | 2.04 µM (inactive) |
